Here are results for 1 compound from patent US20210290597A1, “METHOD OF TREATING A CONDITION ASSOCIATED WITH NEURODEGENERATION USING INHIBITORS OF OAT3” (Neuropore Therapies, Inc., priority 2018, published 2021).

By IC50 is commonly meant the concentration needed to halve the response being measured. Low readings indicate higher potency, high ones lower potency.

In one test the target is T1, human transporter OAT3 (Homo sapiens, UniProt Q8TCC7).
T1 construct: expressed in transfected cells; host or cells: MDCK-II
T1 sequence (Q8TCC7 1-542): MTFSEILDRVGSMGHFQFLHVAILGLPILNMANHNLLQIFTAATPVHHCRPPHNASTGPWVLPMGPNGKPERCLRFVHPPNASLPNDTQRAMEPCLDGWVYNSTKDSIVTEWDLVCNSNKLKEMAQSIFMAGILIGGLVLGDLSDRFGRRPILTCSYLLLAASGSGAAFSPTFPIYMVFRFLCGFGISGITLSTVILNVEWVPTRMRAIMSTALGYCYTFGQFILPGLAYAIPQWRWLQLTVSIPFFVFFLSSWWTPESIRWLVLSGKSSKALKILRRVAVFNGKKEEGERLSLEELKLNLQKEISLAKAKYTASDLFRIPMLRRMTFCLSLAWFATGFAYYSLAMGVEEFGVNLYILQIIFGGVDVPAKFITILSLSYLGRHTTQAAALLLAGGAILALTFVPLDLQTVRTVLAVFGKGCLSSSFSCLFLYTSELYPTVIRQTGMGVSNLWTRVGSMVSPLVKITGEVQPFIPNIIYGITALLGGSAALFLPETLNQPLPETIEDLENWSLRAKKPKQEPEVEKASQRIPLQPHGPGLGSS
Briefly: In vitro ion transport assay 1, OAT3-mediated uptake in MDCK-II cells. The format is cell-based. As for the experimental part:
To determine the effect of the ion transporter inhibitors on the uptake activity of solute carrier (SLC) ion transporter proteins such as OAT1 and OAT3, an ion transport assay utilizing a polarized monolayer of MDCK-II cells grown on permeable supports was used. The MDCK-II cells were treated to express the transporter of interest (e.g., OAT3 or OAT 1) or were treated with a control vector. 96-well culture plates with both donor and receiver cells containing a monolayer of MDCK-II cells were maintained at 37° C. in 5% CO2 atmosphere. Radio-labeled para-aminohippurate ([3H]-PAH) was used as a substrate for measuring OAT1 and OAT3 mediated transport, where the transport of the substrate was determined by radiometric detection. OAT1-mediated transport was assayed using 2 μM of [3H]-PAH; OAT3-mediated transport was assayed using 10 μM of [3H]-PAH. The probe substrate for OAT1 was 2 μM [3H]-p-aminohippurate. The probe substrate for OAT3 was 10 μM [3H]p-aminohippurate. The reference inhibitor for both assays was 100 μM probenecid. Following pre incubation of the transfected MDCK-II cells in HBSS, [3H]-PAH was added at the concentrations described above. Wells were then treated with either reference inhibitor probeneic acid or with the test compound. Cells transfected with empty vector served as an additional control. […]

In test [1] the target is T2, human transporter MATE2-K (Homo sapiens, UniProt Q86VL8).
T2 construct: expressed in transfected cells; host or cells: MDCK-II
T2 sequence (Q86VL8 1-566 isoform Q86VL8-3): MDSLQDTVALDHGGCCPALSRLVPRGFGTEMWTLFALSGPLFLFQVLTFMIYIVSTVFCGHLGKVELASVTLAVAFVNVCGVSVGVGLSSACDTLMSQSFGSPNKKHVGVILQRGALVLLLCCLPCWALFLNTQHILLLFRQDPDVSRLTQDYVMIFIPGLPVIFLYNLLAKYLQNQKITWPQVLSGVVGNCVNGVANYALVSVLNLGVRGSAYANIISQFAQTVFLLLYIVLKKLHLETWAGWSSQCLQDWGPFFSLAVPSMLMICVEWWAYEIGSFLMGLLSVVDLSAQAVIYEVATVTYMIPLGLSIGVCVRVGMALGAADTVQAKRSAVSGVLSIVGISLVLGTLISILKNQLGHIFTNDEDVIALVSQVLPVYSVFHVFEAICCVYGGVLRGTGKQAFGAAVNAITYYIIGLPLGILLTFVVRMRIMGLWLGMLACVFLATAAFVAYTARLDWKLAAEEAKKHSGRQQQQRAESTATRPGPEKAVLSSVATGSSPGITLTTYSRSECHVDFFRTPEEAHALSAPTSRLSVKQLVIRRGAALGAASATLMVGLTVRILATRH
In words: In vitro ion transport assay 1, MATE2-K. The format is cell-based. The following applies: probe substrate 10 μM [14C]-metformin. The procedure: Compound 1 was studied in the concentration range of 0.1-100 μM for its potency against transport mediated by various transporter proteins. [table]

Another test relates to total alpha-synuclein. Briefly: Total alpha-synuclein IHC, L61 ASYN transgenic mice, 1 month study. Format: in vivo. As to conditions: for reduction of total alpha-synuclein level in cortex compared to vehicle control: L61 ASYN transgenic mice. As for the experimental part:
(§1) Multiple in vivo administration studies of Compound 1 were carried out in the Line 61 (L61) mThy1-alpha-synuclein transgenic mouse model of Parkinson's disease (PD). The mThy1-alpha-synuclein transgenic mouse model overexpresses wild-type human ASYN under the Thy-1 promoter (commonly referred to as Line 61 transgenic mice; Rockenstein et al., 2002). This transgenic mouse develops extensive accumulation of alpha-synuclein (ASYN) in areas relevant to PD (Rockenstein et al., 2002; Chesselet et al., 2012; Games et al., 2013), neurodegeneration including dopaminergic neurodegeneration, reduced dopamine (DA) and TH loss in the striatum (Masliah et al., 2000; Lam et al., 2011), and motor deficits (Fleming et al., 2004). Male transgenic and non-transgenic littermates (3-3.5 mo) were used for all in vivo studies presented here.
(§2) Alpha-synuclein (ASYN) is a neuronal protein whose dysregulation has been implicated in the pathogenesis of PD. The effects of Compound 1 on alpha-synuclein aggregation were assessed in both L61 ASYN transgenic and non-transgenic mice in a 1 month administration study. L61 ASYN transgenic mice (36 total mice, n=8-11 mice per treatment group) were injected (i.p.) daily with 1, 5, or 10 mg/kg of Compound 1 or a vehicle control (5% DMSO+20% Cremphor EL+0.9% normal saline) for 1 month. Non-transgenic mice (18 total mice, n=8-11 mice per treatment group) were used as a control and were injected daily (i.p.) with 10 mg/kg of Compound 1 or a vehicle control (5% DMSO+20% Cremphor EL+0.9% normal saline) per day for 1 month. At the end of one month, the mice were sacrificed, and immunohistochemical (IHC) detection of total alpha-synuclein deposits, insoluble alpha-synuclein deposits (PK+resistant), microtubule-associated protein 1A/1B-light chain 3 (LC3), and monomeric alpha-synuclein levels were assessed in the harvested brain tissues.
The quantification and IHC staining of total alpha-synuclein were performed using known techniques (Rockenstein et al., J Neurosci Res. 2002, 68(5):568-78; Tanji et al., Acta Neuropathol. 2010, 120, 145-154; Nuber et al., Brain. 2013 February; 136(Pt 2):412-32).

The test system of test [2] is PK-resistant alpha-synuclein. Briefly: PK-resistant (insoluble) alpha-synuclein IHC, L61 ASYN transgenic mice, 1 month study. The format is in vivo. The following applies: for reduction of PK-resistant alpha synuclein levels in cortex compared to vehicle-treated mice: L61 ASYN transgenic mice. As for the experimental part:
as §1
as §2, with “Non-transgenic mice (18 total mice, n=8-11 mice per treatment group) were used as a control and were injected daily (i.p.) with 10 mg/kg of Compound 1 or a vehicle control (5% DMSO+20% Cremphor EL+0.9% normal saline) per day for 1 month.” left out
The quantification and IHC staining of PK-resistant alpha-synuclein were performed using known techniques (Rockenstein et al., J Neurosci Res. 2002, 68(5):568-78; Tanji et al., Acta Neuropathol. 2010, 120, 145-154; Nuber et al., Brain. 2013 February; 136(Pt 2):412-32).

The mark [3] stands for this setting: 1, 5 or 10 mg/kg per day i.p., statistically significant.

Values joined by “and” are separate entries in the source; they are usually repeats but may differ in a detail not shown here. Identical values can stand only once.

Regarding `O=S(=O)(c1ccc(-n2cn[nH]c2=S)cc1)c1ccc(Cl)c(C(F)(F)F)c1` [Compound 1, 4-(4-((4-chloro-3-(trifluoromethyl)phenyl)sulfonyl)phenyl)-2,4-dihydro-3H-1,2,4-triazole-3-thione], the “potency against OAT3 compared with potency against OAT1” value at human transporter OAT3 (OAT3 vs OAT1, [3H]-PAH uptake) is “about 20 fold”. In addition, the IC50 was 620 nM and 622 nM on human transporter OAT3 (assay 1, probe substrate 10 μM [3H]-p-aminohippurate, MDCK-II cells); 75800 nM in test [1]. In addition, the “reduction of total alpha-synuclein level in cortex compared to vehicle control” value came out at 13% in the test with total alpha-synuclein (1 mg/kg daily i.p.), 32% in the test with total alpha-synuclein (5 mg/kg daily i.p.) and 38% in the test with total alpha-synuclein (10 mg/kg daily i.p.). In the test with total alpha-synuclein (setting [3]), the “total ASYN in the neuropil of cortex, hippocampus and striatum vs vehicle” value is “reduced total ASYN”. Further, the “reduction of PK-resistant alpha synuclein levels in cortex compared to vehicle-treated mice” value in test [2] (5 mg/kg daily i.p.) turned out to be 37%; in test [2] (10 mg/kg daily i.p.), 36%. Besides, in test [2] (setting [3]), the “insoluble alpha-synuclein deposits (PK+resistant) in cortex, hippocampus and striatum” value is “reduced the insoluble alpha-synuclein deposits”.
